{
  "source": "patent US20240199754A1",
  "about": "(VANCOUVER BIOTECH LTD., priority 2021, published 2024)",
  "origin": "cited, not measured here",
  "settings": "cited from earlier work",
  "note": "Square brackets hold non-standard residues; d marks the D form. Peptide text beside a SMILES is read from it. dPhe(4-Cl) = N[C@H](Cc1ccc(Cl)cc1)C(=O)O; d2Nal = N[C@H](Cc1ccc2ccccc2c1)C(=O)O; dCit = NC(=O)NCCC[C@@H](N)C(=O)O; d3Pal = N[C@H](Cc1cccnc1)C(=O)O",
  "data": [
    {"smiles": "CC(=O)N[C@H](Cc1ccc2ccccc2c1)C(=O)N[C@H](Cc1ccc(Cl)cc1)C(=O)N[C@H](Cc1cccnc1)C(=O)N[C@@H](CO)C(=O)N[C@@H](Cc1ccc(O)cc1)C(=O)N[C@H](CCCNC(N)=O)C(=O)N[C@@H](CC(C)C)C(=O)N[C@@H](CCCNC(=N)N)C(=O)N1CCC[C@H]1C(=O)N[C@H](C)C(N)=O", "note": "[Cetrorelix, reference compound] (Ac-[d2Nal][dPhe(4-Cl)][d3Pal]SY[dCit]LRP[dA]-NH2)", "values": [
      {"measurement": "circulation half life", "value": "10 to 63", "unit": "h"}
    ]}
  ]
}
